For 7 molecules, MIC results are on record in ChEMBL document CHEMBL5260848, “Recent advancements in the development of bioactive pyrazoline derivatives” (Eur J Med Chem, 2020).

The test system of one assay is Escherichia coli. As to the kind of experiment: Antibacterial activity against Escherichia coli incubated for 24 hrs by disc diffusion method. The assay is classed as functional. On the technique in general: In agar diffusion tests the substance spreads into inoculated agar from a disc or well.
A further assay relates to Pseudomonas aeruginosa. As to the kind of experiment: microbe, parasite or virus in culture. The conditions noted are these: 24 h.
Another assay deals with Candida albicans. Briefly: microbe, parasite or virus in culture. The conditions noted are these: 24 h.
In a further assay the test system is Bacillus subtilis. Briefly: microbe, parasite or virus in culture. The conditions noted are these: 24 h.
In the next assay the test system is Staphylococcus aureus. As to the kind of experiment: microbe, parasite or virus in culture. The settings on record: 24 h.
Assay [1] concerns Mycobacterium tuberculosis. Briefly: microbe, parasite or virus in culture. The conditions noted are these: 120 h.
For another assay, the system named is Aspergillus flavus. Briefly: Antifungal activity against Aspergillus flavus incubated for 24 hrs by disc diffusion method. The assay is classed as functional.
A further assay concerns Aspergillus fumigatus. Briefly: Antifungal activity against Aspergillus fumigatus incubated for 24 hrs by disc diffusion method. The format is functional.
A further assay relates to Aspergillus niger. As to the kind of experiment: Antifungal activity against Aspergillus niger incubated for 24 hrs by disc diffusion method. The assay is classed as functional.

Converted amounts (≈) assume the structure as drawn.

For `O=C(NNS(=O)(=O)c1ccccc1)N1N=C(c2ccccc2)CC1c1ccc(Cl)cc1` (stereo not drawn), the MIC against Escherichia coli came out at 25 mg/L (≈ 55 µM); with Pseudomonas aeruginosa, 25 mg/L (≈ 55 µM); against Candida albicans, 25 mg/L (≈ 55 µM); against Bacillus subtilis it was 25 mg/L (≈ 55 µM); in the assay with Staphylococcus aureus, 25 mg/L (≈ 55 µM); in [1], 1.6 mg/L (≈ 3.52 µM). The MIC in the assay on Aspergillus flavus, in the assay on Aspergillus fumigatus and in the assay on Aspergillus niger was 25 mg/L (≈ 55 µM) throughout.

`O=C(NNS(=O)(=O)c1ccc(F)cc1F)N1N=C(c2ccccc2)CC1c1ccccc1` (stereo not drawn): the MIC in the assay with Escherichia coli was 25 mg/L (≈ 54.8 µM); against Pseudomonas aeruginosa, 25 mg/L (≈ 54.8 µM); in the assay with Candida albicans it was 25 mg/L (≈ 54.8 µM); with Bacillus subtilis, 25 mg/L (≈ 54.8 µM); against Staphylococcus aureus it was 25 mg/L (≈ 54.8 µM); in [1], 0.8 mg/L (≈ 1.75 µM). Moreover, the MIC in the assay on Aspergillus flavus, with Aspergillus fumigatus and in the assay with Aspergillus niger was 25 mg/L (≈ 54.8 µM) throughout.

On to `CSc1ccc(C2CC(c3ccccc3)=NN2C(=O)NNS(=O)(=O)c2ccccc2)cc1` (stereo not drawn), for which the MIC amounted to 25 mg/L (≈ 53.6 µM) in the assay on Escherichia coli; 25 mg/L (≈ 53.6 µM) in the assay on Pseudomonas aeruginosa; 25 mg/L (≈ 53.6 µM) in the assay with Candida albicans; 25 mg/L (≈ 53.6 µM) against Bacillus subtilis; 25 mg/L (≈ 53.6 µM) in the assay on Staphylococcus aureus; 0.8 mg/L (≈ 1.71 µM) in [1]. Further, the MIC against Aspergillus flavus, with Aspergillus fumigatus and in the assay on Aspergillus niger was 25 mg/L (≈ 53.6 µM) in each case.

Regarding `COc1ccc(C2CC(c3ccccc3)=NN2C(=O)NNS(=O)(=O)c2ccc(F)cc2)cc1` (stereo not drawn), the MIC in the assay with Escherichia coli was 25 mg/L (≈ 53.4 µM); against Pseudomonas aeruginosa, 25 mg/L (≈ 53.4 µM); against Candida albicans, 25 mg/L (≈ 53.4 µM); in the assay on Bacillus subtilis, 25 mg/L (≈ 53.4 µM); in the assay on Staphylococcus aureus it was 25 mg/L (≈ 53.4 µM); in [1] it was 0.8 mg/L (≈ 1.71 µM). The MIC with Aspergillus flavus, in the assay with Aspergillus fumigatus and against Aspergillus niger was 25 mg/L (≈ 53.4 µM) throughout.

Regarding `Cc1ccc(C2CC(c3ccccc3)=NN2C(=O)NNS(=O)(=O)c2ccc(F)cc2F)cc1` (stereo not drawn), the MIC against Escherichia coli amounted to 25 mg/L (≈ 53.1 µM); in the assay with Pseudomonas aeruginosa it was 25 mg/L (≈ 53.1 µM); in the assay on Candida albicans, 25 mg/L (≈ 53.1 µM); against Bacillus subtilis, 25 mg/L (≈ 53.1 µM); in the assay on Staphylococcus aureus, 25 mg/L (≈ 53.1 µM); in assay [1], 0.8 mg/L (≈ 1.7 µM). Further, the MIC with Aspergillus flavus, in the assay on Aspergillus fumigatus and against Aspergillus niger was 25 mg/L (≈ 53.1 µM) each time.

Turning to `COc1ccc(C2CC(c3ccccc3)=NN2C(=O)NNS(=O)(=O)c2ccc(F)cc2F)cc1` (stereo not drawn), the MIC in the assay on Escherichia coli is 25 mg/L (≈ 51.4 µM); against Pseudomonas aeruginosa, 25 mg/L (≈ 51.4 µM); in the assay on Candida albicans, 25 mg/L (≈ 51.4 µM); against Bacillus subtilis, 25 mg/L (≈ 51.4 µM); with Staphylococcus aureus, 25 mg/L (≈ 51.4 µM); in [1] it was 0.8 mg/L (≈ 1.64 µM). The MIC against Aspergillus flavus, against Aspergillus fumigatus and against Aspergillus niger was 25 mg/L (≈ 51.4 µM) throughout.

As to `O=C(NNS(=O)(=O)c1ccc(F)cc1F)N1N=C(c2ccccc2)CC1c1ccc(Br)cc1` (stereo not drawn), the MIC against Escherichia coli was found to be 25 mg/L (≈ 46.7 µM); in the assay with Pseudomonas aeruginosa, 25 mg/L (≈ 46.7 µM); with Candida albicans it was 25 mg/L (≈ 46.7 µM); in the assay on Bacillus subtilis, 25 mg/L (≈ 46.7 µM); against Staphylococcus aureus, 25 mg/L (≈ 46.7 µM); in assay [1], 0.8 mg/L (≈ 1.49 µM). Besides, the MIC in the assay with Aspergillus flavus, with Aspergillus fumigatus and with Aspergillus niger was 25 mg/L (≈ 46.7 µM) in each case.
